In patent publication US20140148498A1, “METHODS AND COMPOSITIONS FOR THE TREATMENT OF MARFAN SYNDROME AND ASSOCIATED DISORDERS” (THE JOHNS HOPKINS UNIVERSITY, priority 2011, published 2014):
Entries after “also recorded” stand apart in the source; their conditions may differ.

What was measured:
Fbn1^C1039G/+ mice = test: Aortic root and ascending aortic growth by echocardiography (Examples 6-8); type: in vivo
Text: (§1) All mice were cared for under strict compliance with the Animal Care and Use Committee of the Johns Hopkins University School of Medicine. The Smad4 haploinsufficient mice were a generous gift from Dr. Chuxia Deng (NIH/NIDDK, Bethesda). The Fbn1^C1039G/+ line was maintained on a C57BL/6 background, allowing for valid comparisons. In order to further accommodate the potential for temporal- or background-specific variation in genetic or pharmacological manipulation experiments, all comparisons were made between contemporary littermates. Mice were checked daily for death and all mice found dead were immediately necropsied to assess for evidence of aortic dissection. Mice were killed with an inhalation overdose of halothane (Sigma-Aldrich, St. Louis). Mice underwent immediate laparotomy, descending abdominal aortic transection, and PBS (pH 7.4) infusion through the left ventricle to flush out the blood. For Western blot analysis, the proximal ascending aorta (root to right brachiocephalic trunk) was removed, flash frozen in liquid nitrogen and stored at −80° C. Following PBS infusion, mice analyzed for aortic histology had latex injected under low pressure into the left ventricular apex until it was visible in the descending abdominal aorta. The mice were then fixed for 24 hours in 10% buffered formalin, after which the heart and aorta were removed and stored in 70% ethanol.
(§2) Mouse monoclonal TGFβNAb (1d11; R&D Systems, Minneapolis) was reconstituted in PBS and administered via intraperitoneal injection 3 times a week at a dose of 5 mg/kg. Treatment was initiated at 1 month of age and continued for 2 months. IgG (Zymed Laboratories Inc, San Francisco) was reconstituted in PBS, and administered at a dose of 10 mg/kg as a control. SP600125 (Sigma-Aldrich, St. Louis) was reconstituted in 10% DMSO dissolved in PBS, and administered twice daily by intraperitoneal injection, at a dose of 30 mg/kg. Treatment was initiated at 1 month of age and continued for 2 months. 10% DMSO dissolved in PBS was administered as a control. RDEA119 was reconstituted in 10% 2-hydroxypropyl-beta-cyclodextrin (Sigma-Aldrich, St. Louis) dissolved in PBS, and administered twice daily by oral gavage at a dose of 25 mg/kg. Treatment was initiated at 2 months of age and continued for 2 months. 10% 2-hydroxypropyl-beta-cyclodextrin dissolved in PBS was administered as a control. Fasudil was dissolved in drinking water, and administered at a dose of 1 mg/kg body weight per day. Treatment was initiated at 2 months of age and continued for 4 months. Drinking water was administered as a control.
Nair hair removal cream was used on all mice the day prior to echocardiography. All echocardiograms were performed on awake, unsedated mice using the Visualsonics Vevo 660 V1.3.6 imaging system and a 30 MHz transducer. The aorta was imaged using a parasternal long axis view. Three separate measurements of the maximal internal systolic dimension at the sinus of Valsalva and proximal ascending aorta were made, and a mean was calculated. All imaging and measurements were performed by a cardiologist who was blinded to genotype and treatment arm. In the TGFβNAb and SP600125 trials, mice were imaged at 1 month (baseline) and 3 months of age, after which they were killed. In the RDEA119 trial, mice were imaged at 2 months (baseline) and 4 months of age, after which they were killed. In the fasudil trial, mice were imaged at 2 months (baseline) and 6 months of age, after which they were killed. Smad4 haploinsufficient mice were imaged at 1 month, and then every 2 months thereafter, until death or sacrifice.

[1] = test system: S4^+/−:Fbn1^C1039G/+ mice; test: Aortic root and ascending aortic growth by echocardiography, Smad4 haploinsufficient MFS mice; type: in vivo
Text: as §1
as §2, with “Drinking water was administered as a control.” left out
(§3) Nair hair removal cream was used on all mice the day prior to echocardiography. […] Three separate measurements of the maximal internal systolic dimension at the sinus of Valsalva and proximal ascending aorta were made, and a mean was calculated. […]

[2] = test system: S4^+/−:Fbn1^C1039G/+ mice; test: Survival (premature death due to aortic dissection); type: in vivo
Text: as §1, with “ethanol. […]” for “ethanol.”

ERK1/2 = test: Western blot of proximal ascending aorta: ERK1/2 activation (Examples 6-8); type: in vivo, mice
Text: as §1
(§4) Mouse monoclonal TGFβNAb (1d11; R&D Systems, Minneapolis) was reconstituted in PBS and administered via intraperitoneal injection 3 times a week at a dose of 5 mg/kg. Treatment was initiated at 1 month of age and continued for 2 months. IgG (Zymed Laboratories Inc, San Francisco) was reconstituted in PBS, and administered at a dose of 10 mg/kg as a control. […]
(§5) Protein was extracted using the reagents and protocol from a Total Protein Extraction Kit, in conjunction with a Protein Phosphatase Inhibitor Cocktail (Millipore, MA). […] Equal protein loading of samples was determined by a protein assay (BioRad, CA) and confirmed by probing with antibodies against β-Actin or GAPDH (Sigma, Mo.). […]

JNK1 = test: Western blot of proximal ascending aorta: JNK1 activation (Examples 6-8); type: in vivo, mice
Text: as §1, with “Mice underwent immediate laparotomy, descending abdominal aortic transection, and PBS (pH 7.4) infusion through the left ventricle to flush out the blood. For Western blot analysis, the proximal ascending aorta (root to right brachiocephalic trunk) was removed, flash frozen in liquid nitrogen and stored at −80° C.” left out, “The mice were then fixed for 24 hours in 10% buffered formalin, after which the heart and aorta were removed and stored in 70% ethanol.” left out
as §5

[3] = test system: abdominal aortic aneurysm induced by the periaortic application of calcium chloride; conditions: prior work (Yoshimura et al. 2005), in association with reduced JNK1 activation; cited from earlier work
WT mice = test: Aortic root growth by echocardiography, WT mice (Examples 6-8); type: in vivo
Text: as §1, §4, §3

Smad2 = test: Western blot of proximal ascending aorta: Smad2 activation (Examples 6-8); type: in vivo; conditions: Fbn1^C1039G/+ mice, RDEA119 trial, FIG. 16D
Text: as §1, with “Mice underwent immediate laparotomy, descending abdominal aortic transection, and PBS (pH 7.4) infusion through the left ventricle to flush out the blood. For Western blot analysis, the proximal ascending aorta (root to right brachiocephalic trunk) was removed, flash frozen in liquid nitrogen and stored at −80° C.” left out, “The mice were then fixed for 24 hours in 10% buffered formalin, after which the heart and aorta were removed and stored in 70% ethanol.” left out
as §5

p38 = test: Western blot of proximal ascending aorta: p38 activation (Examples 6-8); type: in vivo; conditions: Fbn1^C1039G/+ mice, RDEA119 trial, FIG. 16D
Text: as §1, with “Mice underwent immediate laparotomy, descending abdominal aortic transection, and PBS (pH 7.4) infusion through the left ventricle to flush out the blood. For Western blot analysis, the proximal ascending aorta (root to right brachiocephalic trunk) was removed, flash frozen in liquid nitrogen and stored at −80° C.” left out, “The mice were then fixed for 24 hours in 10% buffered formalin, after which the heart and aorta were removed and stored in 70% ethanol.” left out
as §5

ERK5 = test: Western blot of proximal ascending aorta: ERK5 activation (Examples 6-8); type: in vivo; conditions: Fbn1^C1039G/+ mice, RDEA119 trial, FIG. 16D
Text: as §1, with “Mice underwent immediate laparotomy, descending abdominal aortic transection, and PBS (pH 7.4) infusion through the left ventricle to flush out the blood. For Western blot analysis, the proximal ascending aorta (root to right brachiocephalic trunk) was removed, flash frozen in liquid nitrogen and stored at −80° C.” left out, “The mice were then fixed for 24 hours in 10% buffered formalin, after which the heart and aorta were removed and stored in 70% ethanol.” left out
as §5

[4] = Body weight at the end of the two month RDEA119 trial; type: in vivo; conditions: WT or Fbn1^C1039G/+ mice, FIG. 25
Method: Mouse monoclonal TGFβNAb (1d11; R&D Systems, Minneapolis) was reconstituted in PBS and administered via intraperitoneal injection 3 times a week at a dose of 5 mg/kg. Treatment was initiated at 1 month of age and continued for 2 months. IgG (Zymed Laboratories Inc, San Francisco) was reconstituted in PBS, and administered at a dose of 10 mg/kg as a control. SP600125 (Sigma-Aldrich, St. Louis) was reconstituted in 10% DMSO dissolved in PBS, and administered twice daily by intraperitoneal injection, at a dose of 30 mg/kg. Treatment was initiated at 1 month of age and continued for 2 months. 10% DMSO dissolved in PBS was administered as a control. RDEA119 was reconstituted in 10% 2-hydroxypropyl-beta-cyclodextrin (Sigma-Aldrich, St. Louis) dissolved in PBS, and administered twice daily by oral gavage at a dose of 25 mg/kg. Treatment was initiated at 2 months of age and continued for 2 months. 10% 2-hydroxypropyl-beta-cyclodextrin dissolved in PBS was administered as a control. Fasudil was dissolved in drinking water, and administered at a dose of 1 mg/kg body weight per day. Treatment was initiated at 2 months of age and continued for 4 months. Drinking water was administered as a control. […]

[5] = 30 mg/kg twice daily i.p., 1 to 3 months of age, FIG. 23A
[6] = WT and Fbn1^C1039G/+ mice after two weeks of therapy, FIG. 24
[7] = 25 mg/kg twice daily oral gavage, 2 to 4 months of age, FIG. 16C
[8] = RDEA119 trial, 2 months of treatment
[9] = Fbn1^C1039G/+ mice, RDEA119 trial, FIG. 16D

## O=C1c2ccccc2-c2n[nH]c3cccc1c23 [SP600125]
Fbn1^C1039G/+ mice; [5]
  Final absolute aortic root diameter: 1.97+/−0.16 mm
  Final absolute ascending aortic diameter: 1.38+/−0.06 mm
Fbn1^C1039G/+ mice; SP600125 trial, versus placebo
  Aortic root growth: decreased aortic root growth; also recorded: ameliorated their aortic root growth
[1]; [5]
  Final absolute aortic root diameter: 2.09+/−0.16 mm
  Final absolute ascending aortic diameter: 1.47+/−0.14 mm
[1]; SP600125 trial, versus placebo
  Aortic root growth: decreased aortic root growth; also recorded: significant reduction
  Ascending aortic growth: reduced ascending aortic growth; also recorded: significant reduction
[2]; 50% of placebo-treated had died
  Mice still alive at 3 months of age: all
[2]; FIG. 23B
  Premature death due to aortic dissection: prevention of premature death; also recorded: prevented the premature death
ERK1/2; [6]
  ERK1/2 activation: no change in ERK1/2 activation; also recorded: remained unaffected
JNK1; [6]
  JNK1 activation: significant reduction in JNK1 activation; also recorded: reduction of JNK1 activation to levels below baseline
[3]
  Abdominal aortic aneurysm: ameliorate abdominal aortic aneurysm

## COc1cc(F)c(F)c(Nc2ccc(I)cc2F)c1NS(=O)(=O)C1(C[C@H](O)CO)CC1 [RDEA119]
Fbn1^C1039G/+ mice; [7]
  Final absolute aortic root diameter: 1.94+/−0.07 mm
Fbn1^C1039G/+ mice; [8]
  Aortic root growth: selectively reduced growth; also recorded: significantly less than that of placebo-treated
WT mice; [7]
  Final absolute aortic root diameter: 1.64+/−0.09 mm
WT mice; [8]
  Aortic root growth: no significant effect
ERK1/2; [9]
  ERK1/2 activation: selective reduction in pERK1/2 signaling; also recorded: significant reduction in ERK1/2 activation
Smad2
  Smad2 activation: unchanged
JNK1; [9]
  JNK1 activation: unchanged
p38
  p38 activation: unchanged
ERK5
  ERK5 activation: unchanged
[4]
  Weight (somatic growth) at the end of the two month trial: does not significantly affect somatic growth; also recorded: did not significantly affect the weight
